Reference: paper PMC6934184, “Selective DNA-PKcs inhibition extends the therapeutic index of localized radiotherapy and chemotherapy” (The Journal of Clinical Investigation, 2019)

Target: T1, AMPK (A1/B1/G2) (Homo sapiens, UniProt Q13131)
T1 construct: purchased Thermo Fisher Scientific (Life Technologies) SelectScreen
Assay: SelectScreen LanthaScreen
Format: binding
Conditions: read-out: % displacement
Summary of the method: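 Percent values come from Thermo SelectScreen profiling of NU5455, combining activity and binding assays. CSF1R was run in Z'LYTE format at Km app ATP, and CAMK1 in Adapta format with ATP listed at 10.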

T1 sequence (Q13131 whole entry): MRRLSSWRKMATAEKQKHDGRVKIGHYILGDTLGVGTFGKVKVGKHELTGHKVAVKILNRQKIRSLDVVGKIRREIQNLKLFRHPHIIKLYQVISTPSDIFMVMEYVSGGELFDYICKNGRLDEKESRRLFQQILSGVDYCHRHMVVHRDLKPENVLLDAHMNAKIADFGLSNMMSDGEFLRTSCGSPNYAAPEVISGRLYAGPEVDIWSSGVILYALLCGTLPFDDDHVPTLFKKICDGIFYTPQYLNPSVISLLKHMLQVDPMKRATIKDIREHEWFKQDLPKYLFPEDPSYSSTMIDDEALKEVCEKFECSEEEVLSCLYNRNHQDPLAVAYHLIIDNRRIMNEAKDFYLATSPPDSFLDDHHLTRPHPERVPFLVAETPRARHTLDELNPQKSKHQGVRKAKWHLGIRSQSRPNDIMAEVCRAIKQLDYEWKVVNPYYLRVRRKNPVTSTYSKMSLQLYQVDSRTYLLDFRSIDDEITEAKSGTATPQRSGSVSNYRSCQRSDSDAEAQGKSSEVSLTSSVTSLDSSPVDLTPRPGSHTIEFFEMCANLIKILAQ
T1 sequence (Q9Y478 whole entry partner): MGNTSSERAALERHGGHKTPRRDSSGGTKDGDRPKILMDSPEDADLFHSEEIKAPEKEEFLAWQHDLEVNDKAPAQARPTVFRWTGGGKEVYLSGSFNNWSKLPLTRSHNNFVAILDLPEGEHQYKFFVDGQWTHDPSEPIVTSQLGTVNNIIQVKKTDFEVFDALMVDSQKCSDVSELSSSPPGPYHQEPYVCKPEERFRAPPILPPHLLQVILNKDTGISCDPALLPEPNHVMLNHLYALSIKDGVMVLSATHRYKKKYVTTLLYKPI
T1 sequence (Q9UGJ0 whole entry partner): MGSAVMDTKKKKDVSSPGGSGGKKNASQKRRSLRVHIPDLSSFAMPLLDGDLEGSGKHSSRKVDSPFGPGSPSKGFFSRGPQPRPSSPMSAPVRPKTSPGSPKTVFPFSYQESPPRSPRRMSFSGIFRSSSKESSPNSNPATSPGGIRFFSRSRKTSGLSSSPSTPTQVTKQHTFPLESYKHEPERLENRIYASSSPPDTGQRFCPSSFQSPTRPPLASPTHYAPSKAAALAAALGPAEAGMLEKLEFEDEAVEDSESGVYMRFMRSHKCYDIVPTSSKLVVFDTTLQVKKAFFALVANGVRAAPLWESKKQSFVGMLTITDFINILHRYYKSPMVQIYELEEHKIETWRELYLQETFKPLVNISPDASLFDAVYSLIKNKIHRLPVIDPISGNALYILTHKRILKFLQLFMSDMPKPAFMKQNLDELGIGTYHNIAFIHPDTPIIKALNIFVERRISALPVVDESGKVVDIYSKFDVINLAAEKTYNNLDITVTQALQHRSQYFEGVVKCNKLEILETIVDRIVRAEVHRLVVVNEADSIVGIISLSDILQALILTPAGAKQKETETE

## CN(C(=O)CN1CCOCC1)c1ccc2sc3c(-c4cccc5c(=O)cc(N6CC7CCC(C6)O7)oc45)cccc3c2c1 [NU5455]
  inhibition at 1 µM: 2.4%
